Values quoted from earlier work as cited in patent US20260248891A1, “TIRZEPATIDE COMPOSITIONS AND USE” (Eli Lilly and Company, priority 2022, published 2026).

System: patients with obesity or overweight
Settings: Phase 3 study, currently approved doses

In the case of tirzepatide, the weight loss is given as 15.7%.
